Results: article PMC8664216 (PLoS Neglected Tropical Diseases, 2021)

What was measured:
[1] = system: p62; experiment: Western blot of p62 in mock- or CHIKV-infected Huh7 cells; format: cell-based, human; settings: 10 μM tomatidine, 9 hpi
[2] = system: CD98; experiment: Western blot of CD98 in mock- or CHIKV-infected Huh7 cells; format: cell-based, human; settings: 10 μM tomatidine, 9 hpi
[3] = system: TMX2; experiment: Western blot of TMX2 in mock- or CHIKV-infected Huh7 cells; format: cell-based, human; settings: 10 μM tomatidine, 9 hpi
[4] = system: CHIKV-LR; experiment: Infectious particle production (plaque assay) in siRNA knockdown Huh7 cells; format: cell-based, Chikungunya virus; settings: CHIKV MOI 10, 10 μM tomatidine, 9 hpi
[5] = system: CHIKV in vitro transcribed RNA (CHIK-LR); experiment: Virus cell entry-bypass assay: electroporation of in vitro transcribed CHIKV RNA, plaque assay; format: cell-based, Chikungunya virus; settings: Huh7 cells electroporated with CHIKV RNA, 10 μM tomatidine, 16 h post-transfection
[6] = system: CHIKV-LR trans-replicase system; experiment: CHIKV trans-replicase system, tomato marker by flow cytometry; format: cell-based, Chikungunya virus; settings: for Percentage of fluorescent tomato marker expressing cells / Reduction of marker expressing cells compared to EtOH control: Huh7 cells; for Percentage of fluorescent tomato marker expressing cells: read at 24 h, EtOH control 8.18±0.45%
[7] = system: CHIKV-LR; experiment: Time-trace and time-chase: intracellular CHIKV RNA copies by Q-RT-PCR; format: cell-based, Chikungunya virus; settings: Huh7 cells; for Intracellular viral RNA load: MOI 10, 10 μM tomatidine at time of infection; for Reduction of intracellular RNA load compared to EtOH control: MOI 10, 10 μM tomatidine
[8] = system: CHIKV-LR; experiment: Western blot of CHIKV nsP2, E1 and capsid proteins; format: cell-based, Chikungunya virus; settings: 9 hpi
[9] = system: DENV-2; settings: DENV-2, in vitro; cited from earlier work
[10] = system: CHIKV-LR; settings: in vitro; cited from earlier work
[11] = system: Huh7 cells; settings: cited from earlier work
[12] = system: Huh7 cells; experiment: ATPLite cytotoxicity assay; settings: 7 μM ivermectin, 24 h
[13] = CHIKV-infected (MOI 10) Huh7 cells
[14] = Huh7, MOI 10, 10 μM tomatidine added at 4 hpi
[15] = Huh7, MOI 10, 10 μM tomatidine added at 6 hpi
[16] = Huh7, MOI 10, 10 μM tomatidine added simultaneous to infection

C[C@H]1CC[C@]2(NC1)O[C@H]1C[C@H]3[C@@H]4CC[C@H]5C[C@@H](O)CC[C@]5(C)[C@H]4CC[C@]3(C)[C@H]1[C@@H]2C [tomatidine, Tomatidine]
Increase of p62 expression compared to solvent control [1, 13]: 1.8 fold
Increase of p62 expression compared to solvent control ([1]; mock-infected Huh7 cells): 1.7 fold
Increase of CD98 expression compared to solvent control [2, 13]: 1.4 fold
Increase of CD98 expression compared to solvent control ([2]; mock-infected Huh7 cells): 1.6 fold
Change in protein expression of TMX2 [3]: did not induce any significant change
Inhibition of infectious particle production compared to EtOH control ([4]; Huh7 cells with CD98 siRNA knock-down): 91.68%
Inhibition of infectious particle production compared to EtOH control ([4]; Huh7 cells with p62 knock-down (siRNA #1)): 86.37%
Inhibition of infectious particle production compared to EtOH control ([4]; Huh7 cells with p62 knock-down (siRNA #4)): 90.82%
Reduction of virus titer [5]: 2.6 log
Infectious virus titer ([5]; EtOH control 5.0±0.1): 2.4±0.3 Log10 PFU/mL
Percentage of fluorescent tomato marker expressing cells ([6]; 10 μM tomatidine added 1 h post-transfection): 4.4±0.69%
Reduction of marker expressing cells compared to EtOH control ([6]; 10 μM tomatidine, 24 h post-transfection): 46%
Intracellular viral RNA load ([7]; 1 and 2 hpi (all experimental conditions)): ~ 7 Log10 copies
Intracellular viral RNA load ([7]; 4 hpi, EtOH 8.0±0.2): 7.8±0.1 Log10 copies
Intracellular viral RNA load ([7]; 6 hpi, EtOH 9.7±0.1): 9.2±0.1 Log10 copies
Intracellular viral RNA load ([7]; 8 hpi, EtOH 10.3±0.0): 9.9±0.1 Log10 copies
Reduction of intracellular RNA load compared to EtOH control ([7]; 6 hpi): 74%
Reduction of intracellular RNA load compared to EtOH control ([7]; 8 hpi): 62%
Intracellular viral RNA copy number vs absence of tomatidine (time-chase) ([7]; MOI 10, tomatidine added at 6 hpi, RNA at 8 and 10 hpi, without tomatidine 10.3±0.0 and 10.6±0.0 Log10): Comparable results
C (capsid) expression compared to EtOH control [8, 14]: 50%
E1 expression compared to EtOH control [8, 14]: 30%
nsP2 expression compared to EtOH control [8, 14]: 50%
C (capsid) expression compared to EtOH control [8, 15]: 60%
E1 expression compared to EtOH control [8, 15]: 40%
nsP2 expression compared to EtOH control [8, 15]: 60%
C (capsid) expression compared to EtOH control [8, 16]: 46%
E1 expression compared to EtOH control [8, 16]: 18%
nsP2 expression compared to EtOH control [8, 16]: 50%
EC50 [9]: 820 nM
EC50 [10]: 1300 nM
Highest non-toxic yet antiviral dose [11]: 10 µM

ivermectin
Percentage of fluorescent tomato marker expressing cells ([6]; 7 μM ivermectin added 1 h post-transfection): 2.19±0.5%
Reduction of marker expressing cells compared to EtOH control ([6]; 7 μM ivermectin, 24 h post-transfection): 73%
MFI of tomato marker relative to EtOH control ([6]; marker-positive Huh7 cells, 7 μM ivermectin, 24 h post-transfection): 0.4±0.06
Cytotoxicity of the selected concentration [12]: non-toxic
